Among the data in patent US9290691B2, “Organic el material-containing solution, method for forming organic el thin film, organic el device comprising organic el thin film, and method for manufacturing organic el display panel” (IDEMITSU KOSAN CO., LTD., priority 2007, dated 2016) are solubility values, retold here.

The data set in a line: Solvent solubility of naphthacene host compound. Conditions: aromatic substituent bonded to naphthacene skeleton in para position; solvent not stated. It counts as physicochemical. The text has this: For instance, when an aromatic group as a substituent is bonded to a naphthacene skeleton in para position, the solubility is lowered.

`c1ccc(-c2ccc(-c3c4ccccc4c(-c4ccc(-c5ccccc5)cc4-c4ccccc4)c4cc5ccccc5cc34)c(-c3ccccc3)c2)cc1` gave a solubility of at most 0.1 mass %.
